# Laboratory results taken from publication PMC12948427 (The Journal of Clinical Investigation, 2025).
# “And” between values parts separate entries of the source, which are not always exact repeats. Identical values can stand only once. Like-named read-outs stand apart in the source and are kept apart here. Ends that are not written are not given here.
# What was measured:
# [1] = tested on: Calu-3 cells
# [2] = in vitro; details: Vero E6 cells, cell viability, Figure S7F
# [3] = tested on: Vero E6 cells
# [4] = tested on: 17Cl-1 cells
# [5] = biological target: hHGS 1-390-6 × HIS protein (Homo sapiens, UniProt O14964); assay: SPR binding of immobilized M peptides to HGS; details: without RTB; read-out: KD, binding affinity of peptide with HGS (SPR)
# Sequence of hHGS 1-390-6 × HIS protein (Homo sapiens, UniProt O14964) (O14964 1-390): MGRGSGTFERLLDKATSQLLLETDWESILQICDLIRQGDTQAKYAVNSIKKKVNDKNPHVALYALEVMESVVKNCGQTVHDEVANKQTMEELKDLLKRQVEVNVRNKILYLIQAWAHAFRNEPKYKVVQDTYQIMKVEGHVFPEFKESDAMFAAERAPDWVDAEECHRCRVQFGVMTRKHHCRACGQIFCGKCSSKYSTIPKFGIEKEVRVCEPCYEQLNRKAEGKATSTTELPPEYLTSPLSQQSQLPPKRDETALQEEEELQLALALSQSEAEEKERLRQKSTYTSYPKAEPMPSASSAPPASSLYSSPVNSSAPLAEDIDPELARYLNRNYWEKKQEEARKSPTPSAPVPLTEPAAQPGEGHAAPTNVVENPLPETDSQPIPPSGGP
# [6] = in vitro; details: human, Calu-3 cells, cell viability, Figure S7G
# [7] = in vitro; details: mouse, 17Cl-1 cells, cell viability, Figure S7E
# [8] = biological target: M161 (SARS-CoV-2 M 135-161 peptide fused with HIV-TAT) (HIV | SARS-CoV-2) (UniProt P0DTC5); assay: SPR
# Sequence of M161 (SARS-CoV-2 M 135-161 peptide fused with HIV-TAT) (HIV | SARS-CoV-2) (P0DTC5 135-161 limits assumed): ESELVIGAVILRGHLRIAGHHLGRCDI
# [9] = biological target: M146 (SARS-CoV-2 M 135-146 peptide fused with HIV-TAT) (HIV | SARS-CoV-2) (UniProt P0DTC5); assay: SPR
# [10] = biological target: M161 (SARS-CoV-2 M 135-161 peptide fused with HIV-TAT) (HIV | SARS-CoV-2) (UniProt P0DTC5); assay: SPR; remark: listed apart in the source
# [11] = biological target: M146 (SARS-CoV-2 M 135-146 peptide fused with HIV-TAT) (HIV | SARS-CoV-2) (UniProt P0DTC5); assay: SPR; remark: listed apart in the source
# Sequence of hHGS 1-390-6 × HIS protein (from UniProt O14964 1-390) (domain or fragment) (O14964 1-390): as the sequence (O14964 1-390) above
substance,measurement,setting,value
GRKKRRQRRRPPQESELVIGAVILR [M146],cytotoxicity (CCK-8),"[1]; Calu-3, up to 10^4 nM",no significant cytotoxicity
same,"cell viability, Figure S7G",[1]; peptide concentration 2000,95.941 and 95.203
same,"cell viability, Figure S7G",[1]; peptide concentration 10000,97.048 and 96.679
same,"cell viability, Figure S7G",[1]; peptide concentration 20000,96.679
same,"cell viability, Figure S7G",[1]; peptide concentration 40000,96.31 and 87.4539
same,"cell viability, Figure S7G",[1]; peptide concentration 80000,94.0959 and 97.048
same,"cell viability, Figure S7G",[1]; peptide concentration 120000,77.1218 and 97.786 and 96.31
same,"cell viability, Figure S7G",[1]; peptide concentration 160000,66.0517 and 74.9077
same,"cell viability, Figure S7G",[1]; peptide concentration 200000,81.9188 and 68.2657
same,"cell viability, Figure S7G",[1]; peptide concentration 400000,25.2399 and 16.7897
same,"cell viability, Figure S7G",[1]; peptide concentration 800000,14.4649
same,"cell viability, Figure S7G",[1]; peptide concentration 1200000,11.5867 and 10.5535
same,"cell viability, Figure S7G",[1]; peptide concentration 1600000,13.7638 and 14.6125
same,viability at 24 h,[2]; peptide concentration 2000,98.5%
same,viability at 24 h,[2]; peptide concentration 10000,97.7%
same,viability at 24 h,[2]; peptide concentration 20000,94.2%
same,viability at 24 h,[2]; peptide concentration 40000,93.1%
same,viability at 24 h,[2]; peptide concentration 80000,91.9%
same,viability at 24 h,[2]; peptide concentration 120000,88.8%
same,viability at 24 h,[2]; peptide concentration 160000,80.8%
same,viability at 24 h,[2]; peptide concentration 200000,70.8%
same,viability at 24 h,[2]; peptide concentration 400000,20%
same,viability at 24 h,[2]; peptide concentration 800000,12%
same,viability at 24 h,[2]; peptide concentration 1200000,11.4%
same,viability at 24 h,[2]; peptide concentration 1600000,14.5%
same,cytotoxicity (CCK-8),"[3]; Vero E6, up to 10^4 nM",no significant cytotoxicity
same,"cell viability, Figure S7F",[3]; peptide concentration 2000,100.769 and 98.8462
same,"cell viability, Figure S7F",[3]; peptide concentration 10000,100.769 and 99.2308
same,"cell viability, Figure S7F",[3]; peptide concentration 20000,100 and 96.5385
same,"cell viability, Figure S7F",[3]; peptide concentration 40000,96.9231 and 96.1538
same,"cell viability, Figure S7F",[3]; peptide concentration 80000,86.9231
same,"cell viability, Figure S7F",[3]; peptide concentration 120000,92.3077
same,"cell viability, Figure S7F",[3]; peptide concentration 160000,75.7692 and 76.9231
same,"cell viability, Figure S7F",[3]; peptide concentration 200000,78.4615 and 78.8462
same,"cell viability, Figure S7F",[3]; peptide concentration 400000,21.7308 and 21.1538
same,"cell viability, Figure S7F",[3]; peptide concentration 800000,13.7308 and 14.2308
same,"cell viability, Figure S7F",[3]; peptide concentration 1200000,13.4615 and 14.1154
same,"cell viability, Figure S7F",[3]; peptide concentration 1600000,13.0385 and 11.8077
same,cytotoxicity (CCK-8),"[4]; 17Cl-1, up to 10^4 nM",no significant cytotoxicity
same,"cell viability, Figure S7E",[4]; peptide concentration 1000,99.2599 and 92.2943
same,"cell viability, Figure S7E",[4]; peptide concentration 4000,104.049 and 106.226
same,"cell viability, Figure S7E",[4]; peptide concentration 8000,108.838
same,"cell viability, Figure S7E",[4]; peptide concentration 10000,97.5185 and 100.566
same,"cell viability, Figure S7E",[4]; peptide concentration 20000,112.32 and 104.049
same,"cell viability, Figure S7E",[4]; peptide concentration 40000,96.2125 and 97.0832
same,"cell viability, Figure S7E",[4]; peptide concentration 60000,82.2812 and 103.613 and 98.3892
same,"cell viability, Figure S7E",[4]; peptide concentration 80000,90.5529
same,"cell viability, Figure S7E",[4]; peptide concentration 100000,97.0832 and 87.5054
same,"cell viability, Figure S7E",[4]; peptide concentration 200000,89.6822 and 71.8328
same,Kd,[5],5.73 nM
same,viability at 24 h,[6]; peptide concentration 2000,83.8%
same,viability at 24 h,[6]; peptide concentration 10000,95.2%
same,viability at 24 h,[6]; peptide concentration 20000,94.8%
same,viability at 24 h,[6]; peptide concentration 40000,93.7%
same,viability at 24 h,[6]; peptide concentration 80000,92.6%
same,viability at 24 h,[6]; peptide concentration 160000,85.6%
same,viability at 24 h,[6]; peptide concentration 200000,83%
same,viability at 24 h,[6]; peptide concentration 400000,24.4%
same,viability at 24 h,[6]; peptide concentration 800000,13%
same,viability at 24 h,[6]; peptide concentration 1200000,11%
same,viability at 24 h,[6]; peptide concentration 1600000,11.7%
same,viability at 24 h,[7]; peptide concentration 1000,99.7%
same,viability at 24 h,[7]; peptide concentration 4000,103%
same,viability at 24 h,[7]; peptide concentration 8000,95.8%
same,viability at 24 h,[7]; peptide concentration 10000,107%
same,viability at 24 h,[7]; peptide concentration 20000,92.7%
same,viability at 24 h,[7]; peptide concentration 40000,91%
same,viability at 24 h,[7]; peptide concentration 80000,71.4%
same,viability at 24 h,[7]; peptide concentration 100000,84.5%
same,viability at 24 h,[7]; peptide concentration 200000,84%
hHGS 1-390-6 × HIS protein (from UniProt O14964 1-390) (domain or fragment),Kd,[8],830 nM
same,Kd,[9],210 nM
same,Kd,[10],3.84 nM
same,Kd,[11],5.73 nM
